{"source": "patent US20200172927A1", "about": "“REP[…] […] FOR TREATMENT OF NEURODEGENERATION” (The Trustees of Columbia University in the City of New York, priority 2017, published 2020)", "tested_on": "HIF2a and GLUT1", "assay": "Immunoblot of retinas from B6 mice orally fed VH298 for 3 days", "format": "in vivo", "settings": "6-week old B6 mice, oral, VH298 in oil 10, 20, or 50 mg/kg, retinas collected 4 hours after last feeding, vs oil only control", "experimental": "6-week old B6 mice were orally fed for 3 days with VH298 in oil (10, 20, or 50 mg/kg) or oil only for the control group. Each group contained 3 mice. 4 hours after the last feeding, mice retinas were collected and processed immediately for immunoblot. Protein levels of HIF2a, and Glut1 were shown. B-actin was used as loading control.\n6-week old B6 mice were orally fed for 3 days with VH298 in oil (10, 20, or 50 mg/kg) or oil only for the control group. Each group contained 3 mice. 4 hours after the last feeding, mice retinas were collected and processed immediately for immunoblot."}
{"smiles": "Cc1ncsc1-c1ccc(CNC(=O)[C@@H]2C[C@@H](O)CN2C(=O)[C@@H](NC(=O)C2(C#N)CC2)C(C)(C)C)cc1", "note": "[VH298, (2S,4R)-1-((S)-2-(1-cyanocyclopropanecarboxamido)-3,3-dimethylbutanoyl)-4-hydroxy-N-(4-(4-methylthiazol-5-yl)benzyl)pyrrolidine-2-carboxamide]", "values": [{"measurement": "Protein level of GLUT1 in retina (immunoblot)", "value": "dose-dependent increase"}, {"measurement": "Protein level of HIF2a in retina (immunoblot)", "value": "dose-dependent increase"}]}
